Assays:
Assay in all cases: relative viability (nuclei count vs DMSO), 5 days (fraction); higher = more cells survive
Crizotinib + Decitabine = compound: C[C@@H](Oc1cc(-c2cnn(C3CCNCC3)c2)cnc1N)c1c(Cl)ccc(F)c1Cl [Crizotinib] + Nc1ncn([C@H]2C[C@H](O)[C@@H](CO)O2)c(=O)n1 [Decitabine] (partner 2 µM)
Method in brief: (§1)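 Nuclei were stained with Hoechst during a one-step fixation (final 0.05% Triton X-100, 1% formaldehyde, 1 ug/ml Hoechst) carried out 5 days after dosing, then counted on 4× images. The cells, lung cancer lines in 1536-well plates, had been dosed by pin tool the day after seeding with one drug alone or a fixed anchor-drug dose plus five library-drug doses (not always all listed) in √10 steps. Relative viability is the nuclei count in treated wells divided by that in vehicle wells, and each value is the median of duplicate plates.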

Olaparib + Phenformin = compound: O=C(c1cc(Cc2n[nH]c(=O)c3ccccc23)ccc1F)N1CCN(C(=O)C2CC2)CC1 [Olaparib] + N=C(N)NC(=N)NCCc1ccccc1 [Phenformin] (partner 250 µM)
Method in brief: as §1

Carfilzomib + Pemetrexed = compound: CC(C)C[C@H](NC(=O)[C@H](CCc1ccccc1)NC(=O)CN1CCOCC1)C(=O)N[C@@H](Cc1ccccc1)C(=O)N[C@@H](CC(C)C)C(=O)[C@@]1(C)CO1 [Carfilzomib] + Nc1nc2[nH]cc(CCc3ccc(C(=O)N[C@@H](CCC(=O)O)C(=O)O)cc3)c2c(=O)[nH]1 [Pemetrexed] (partner 0.2 µM)
Method in brief: as §1

Carfilzomib + Lapatinib = compound: CC(C)C[C@H](NC(=O)[C@H](CCc1ccccc1)NC(=O)CN1CCOCC1)C(=O)N[C@@H](Cc1ccccc1)C(=O)N[C@@H](CC(C)C)C(=O)[C@@]1(C)CO1 [Carfilzomib] + CS(=O)(=O)CCNCc1ccc(-c2ccc3ncnc(Nc4ccc(OCc5cccc(F)c5)c(Cl)c4)c3c2)o1 [Lapatinib] (partner 2 µM)
Method in brief: as §1

201T was tested, and the relative viability (Crizotinib + Decitabine; first compound 0.01 µM) was 0.803, the relative viability (Crizotinib + Decitabine; first compound 0.03162 µM) was 0.848 and the relative viability (Crizotinib + Decitabine; first compound 0.1 µM) was 0.871. The relative viability (Crizotinib + Decitabine; first compound 0.3162 µM) was 0.845, the relative viability (Crizotinib + Decitabine; first compound 1 µM) was 0.893 and the relative viability (Olaparib + Phenformin; first compound 0.08 µM) was 0.396. The relative viability (Olaparib + Phenformin; first compound 0.253 µM) was 0.465, the relative viability (Olaparib + Phenformin; first compound 2.53 µM) was 0.481 and the relative viability (Olaparib + Phenformin; first compound 8 µM) was 0.43. The relative viability (Carfilzomib + Pemetrexed; first compound 0.001 µM) was 0.33, the relative viability (Carfilzomib + Pemetrexed; first compound 0.003162 µM) was 0.33 and the relative viability (Carfilzomib + Pemetrexed; first compound 0.01 µM) was 0.337. The relative viability (Carfilzomib + Pemetrexed; first compound 0.03162 µM) was 0.351, the relative viability (Carfilzomib + Pemetrexed; first compound 0.1 µM) was 0.312 and the relative viability (Carfilzomib + Lapatinib; first compound 0.001 µM) was 1.02. It also gave a relative viability (Carfilzomib + Lapatinib; first compound 0.003162 µM) of 0.961, a relative viability (Carfilzomib + Lapatinib; first compound 0.01 µM) of 1.05 and a relative viability (Carfilzomib + Lapatinib; first compound 0.03162 µM) of 1.04. It also gave a relative viability (Carfilzomib + Lapatinib; first compound 0.1 µM) of 0.88.
A549 was tested, and the relative viability (Crizotinib + Decitabine; first compound 0.01 µM) was 0.213, the relative viability (Crizotinib + Decitabine; first compound 0.03162 µM) was 0.216 and the relative viability (Crizotinib + Decitabine; first compound 0.1 µM) was 0.324. The relative viability (Crizotinib + Decitabine; first compound 0.3162 µM) was 0.16, the relative viability (Crizotinib + Decitabine; first compound 1 µM) was 0.257 and the relative viability (Olaparib + Phenformin; first compound 0.08 µM) was 0.234. It also gave a relative viability (Olaparib + Phenformin; first compound 0.253 µM) of 0.217, a relative viability (Olaparib + Phenformin; first compound 2.53 µM) of 0.172 and a relative viability (Olaparib + Phenformin; first compound 8 µM) of 0.121. It also gave a relative viability (Carfilzomib + Lapatinib; first compound 0.001 µM) of 0.885, a relative viability (Carfilzomib + Lapatinib; first compound 0.003162 µM) of 1.05 and a relative viability (Carfilzomib + Lapatinib; first compound 0.01 µM) of 0.931. For the same cell line, the relative viability (Carfilzomib + Lapatinib; first compound 0.03162 µM) was 0.359 and the relative viability (Carfilzomib + Lapatinib; first compound 0.1 µM) was 0.0624.
A-427 showed a relative viability (Crizotinib + Decitabine; first compound 0.01 µM) of 0.54, a relative viability (Crizotinib + Decitabine; first compound 0.03162 µM) of 0.561 and a relative viability (Crizotinib + Decitabine; first compound 0.1 µM) of 0.526. For the same cell line, the relative viability (Crizotinib + Decitabine; first compound 1 µM) was 0.593, the relative viability (Olaparib + Phenformin; first compound 0.08 µM) was 0.461 and the relative viability (Olaparib + Phenformin; first compound 0.253 µM) was 0.259. It also gave a relative viability (Olaparib + Phenformin; first compound 2.53 µM) of 0.258, a relative viability (Olaparib + Phenformin; first compound 8 µM) of 0.241 and a relative viability (Carfilzomib + Pemetrexed; first compound 0.001 µM) of 0.951. For the same cell line, the relative viability (Carfilzomib + Pemetrexed; first compound 0.003162 µM) was 1.02, the relative viability (Carfilzomib + Pemetrexed; first compound 0.01 µM) was 0.983 and the relative viability (Carfilzomib + Pemetrexed; first compound 0.03162 µM) was 0.842. For the same cell line, the relative viability (Carfilzomib + Pemetrexed; first compound 0.1 µM) was 0.183, the relative viability (Carfilzomib + Lapatinib; first compound 0.001 µM) was 0.925 and the relative viability (Carfilzomib + Lapatinib; first compound 0.003162 µM) was 1.09. The relative viability (Carfilzomib + Lapatinib; first compound 0.01 µM) was 1.09, the relative viability (Carfilzomib + Lapatinib; first compound 0.03162 µM) was 0.972 and the relative viability (Carfilzomib + Lapatinib; first compound 0.1 µM) was 0.157.
Work on ABC-1 yielded a relative viability (Crizotinib + Decitabine; first compound 0.01 µM) of 1.09, a relative viability (Crizotinib + Decitabine; first compound 0.1 µM) of 1.02 and a relative viability (Crizotinib + Decitabine; first compound 1 µM) of 1.15. It also gave a relative viability (Olaparib + Phenformin; first compound 0.08 µM) of 0.239, a relative viability (Olaparib + Phenformin; first compound 0.253 µM) of 0.234 and a relative viability (Olaparib + Phenformin; first compound 2.53 µM) of 0.243. For the same cell line, the relative viability (Olaparib + Phenformin; first compound 8 µM) was 0.276, the relative viability (Carfilzomib + Lapatinib; first compound 0.001 µM) was 1.08 and the relative viability (Carfilzomib + Lapatinib; first compound 0.003162 µM) was 1.54. For the same cell line, the relative viability (Carfilzomib + Lapatinib; first compound 0.01 µM) was 1.2, the relative viability (Carfilzomib + Lapatinib; first compound 0.03162 µM) was 0.499 and the relative viability (Carfilzomib + Lapatinib; first compound 0.1 µM) was 0.516.
For BEN, the relative viability (Crizotinib + Decitabine; first compound 0.01 µM) was 0.687, the relative viability (Crizotinib + Decitabine; first compound 0.03162 µM) was 0.61 and the relative viability (Crizotinib + Decitabine; first compound 0.1 µM) was 0.761. It also gave a relative viability (Crizotinib + Decitabine; first compound 0.3162 µM) of 0.632, a relative viability (Crizotinib + Decitabine; first compound 1 µM) of 0.647 and a relative viability (Olaparib + Phenformin; first compound 0.253 µM) of 0.292. For the same cell line, the relative viability (Olaparib + Phenformin; first compound 2.53 µM) was 0.28, the relative viability (Olaparib + Phenformin; first compound 8 µM) was 0.261 and the relative viability (Carfilzomib + Pemetrexed; first compound 0.001 µM) was 0.743. The relative viability (Carfilzomib + Pemetrexed; first compound 0.003162 µM) was 0.778, the relative viability (Carfilzomib + Pemetrexed; first compound 0.01 µM) was 0.787 and the relative viability (Carfilzomib + Pemetrexed; first compound 0.03162 µM) was 0.599. It also gave a relative viability (Carfilzomib + Pemetrexed; first compound 0.1 µM) of 0.352, a relative viability (Carfilzomib + Lapatinib; first compound 0.001 µM) of 0.635 and a relative viability (Carfilzomib + Lapatinib; first compound 0.003162 µM) of 0.819. It also gave a relative viability (Carfilzomib + Lapatinib; first compound 0.01 µM) of 0.854, a relative viability (Carfilzomib + Lapatinib; first compound 0.03162 µM) of 0.553 and a relative viability (Carfilzomib + Lapatinib; first compound 0.1 µM) of 0.267.
For CAL-12T, the relative viability (Olaparib + Phenformin; first compound 0.08 µM) was 0.715, the relative viability (Olaparib + Phenformin; first compound 0.253 µM) was 0.497 and the relative viability (Olaparib + Phenformin; first compound 2.53 µM) was 0.539. It also gave a relative viability (Olaparib + Phenformin; first compound 8 µM) of 0.558, a relative viability (Carfilzomib + Pemetrexed; first compound 0.001 µM) of 1.19 and a relative viability (Carfilzomib + Pemetrexed; first compound 0.003162 µM) of 1.37. It also gave a relative viability (Carfilzomib + Pemetrexed; first compound 0.01 µM) of 1.15, a relative viability (Carfilzomib + Pemetrexed; first compound 0.03162 µM) of 0.832 and a relative viability (Carfilzomib + Pemetrexed; first compound 0.1 µM) of 0.168. For the same cell line, the relative viability (Carfilzomib + Lapatinib; first compound 0.003162 µM) was 0.691, the relative viability (Carfilzomib + Lapatinib; first compound 0.01 µM) was 0.759 and the relative viability (Carfilzomib + Lapatinib; first compound 0.03162 µM) was 0.618. The relative viability (Carfilzomib + Lapatinib; first compound 0.1 µM) was 0.207.
For COR-L23, the relative viability (Crizotinib + Decitabine; first compound 0.01 µM) was 0.346, the relative viability (Crizotinib + Decitabine; first compound 0.03162 µM) was 0.463 and the relative viability (Crizotinib + Decitabine; first compound 0.1 µM) was 0.454. The relative viability (Crizotinib + Decitabine; first compound 0.3162 µM) was 0.386, the relative viability (Crizotinib + Decitabine; first compound 1 µM) was 0.392 and the relative viability (Olaparib + Phenformin; first compound 0.08 µM) was 0.492. The relative viability (Olaparib + Phenformin; first compound 0.253 µM) was 0.383, the relative viability (Olaparib + Phenformin; first compound 2.53 µM) was 0.408 and the relative viability (Olaparib + Phenformin; first compound 8 µM) was 0.294. For the same cell line, the relative viability (Carfilzomib + Pemetrexed; first compound 0.001 µM) was 0.2, the relative viability (Carfilzomib + Pemetrexed; first compound 0.003162 µM) was 0.187 and the relative viability (Carfilzomib + Pemetrexed; first compound 0.01 µM) was 0.185. The relative viability (Carfilzomib + Pemetrexed; first compound 0.03162 µM) was 0.123, the relative viability (Carfilzomib + Pemetrexed; first compound 0.1 µM) was 0.0834 and the relative viability (Carfilzomib + Lapatinib; first compound 0.001 µM) was 0.906. For the same cell line, the relative viability (Carfilzomib + Lapatinib; first compound 0.003162 µM) was 1.16, the relative viability (Carfilzomib + Lapatinib; first compound 0.01 µM) was 0.895 and the relative viability (Carfilzomib + Lapatinib; first compound 0.03162 µM) was 0.0642. For the same cell line, the relative viability (Carfilzomib + Lapatinib; first compound 0.1 µM) was 0.0567.
COR-L 105 was tested, and the relative viability (Crizotinib + Decitabine; first compound 0.01 µM) was 0.583, the relative viability (Crizotinib + Decitabine; first compound 0.03162 µM) was 0.675 and the relative viability (Crizotinib + Decitabine; first compound 0.1 µM) was 0.658. The relative viability (Crizotinib + Decitabine; first compound 0.3162 µM) was 0.629, the relative viability (Crizotinib + Decitabine; first compound 1 µM) was 0.713 and the relative viability (Olaparib + Phenformin; first compound 0.08 µM) was 0.535. The relative viability (Olaparib + Phenformin; first compound 0.253 µM) was 0.42, the relative viability (Olaparib + Phenformin; first compound 2.53 µM) was 0.479 and the relative viability (Olaparib + Phenformin; first compound 8 µM) was 0.418. The relative viability (Carfilzomib + Pemetrexed; first compound 0.001 µM) was 1.24, the relative viability (Carfilzomib + Pemetrexed; first compound 0.003162 µM) was 1.09 and the relative viability (Carfilzomib + Pemetrexed; first compound 0.01 µM) was 1.19. It also gave a relative viability (Carfilzomib + Pemetrexed; first compound 0.03162 µM) of 0.469, a relative viability (Carfilzomib + Pemetrexed; first compound 0.1 µM) of 0.317 and a relative viability (Carfilzomib + Lapatinib; first compound 0.001 µM) of 0.348. It also gave a relative viability (Carfilzomib + Lapatinib; first compound 0.003162 µM) of 0.377, a relative viability (Carfilzomib + Lapatinib; first compound 0.01 µM) of 0.386 and a relative viability (Carfilzomib + Lapatinib; first compound 0.03162 µM) of 0.324. It also gave a relative viability (Carfilzomib + Lapatinib; first compound 0.1 µM) of 0.289.

— the supplement of paper PMC10307832
